Patent US20250122222A1, “HETEROCYCLIC COMPOUNDS AND METHODS OF USE” (AMGEN INC., priority 2021, published 2025)
Where two headings read alike, the source gives them in different places.

What was measured:
[1] = molecular target: His-tagged KRAS G12D protein (Homo sapiens, UniProt P01116, G12D); assay: KRAS G12D TR-FRET assay (binding); settings: biotinylated KRPep-2d substrate, GDP in assay buffer
Method: The plate was incubated for 30 minutes at room temperature. Biotinylated KRPep-2d substrate (Amgen) was diluted to 20 nM in Assay Buffer and 2 L was added to all wells and incubated for 1 hour at room temperature. Detection Reagent (0.4 nM LANCE Eu-W1024 Anti-6xHis (Perkin Elmer AD0401), 5 nM streptavidin-d^2 (Cisbio 610SADLA)) was prepared in Assay Buffer, then 4 μL was added to the plate and incubated for 1 hour at room temperature.

[2] = tested on: Phosphorylation of ERK1/2 in AsPC-1 cells; assay: Phospho-ERK1/2 MSD assay; assay type: cell-based
Method: Sixteen hours prior to compound treatment, AsPC-1 cells were seeded in 96-well cell culture plates at a density of 25,000 cells/well and incubated at 37° C., 5% CO2. A compound dose-response titration was diluted in growth media, added to appropriate wells of a cell culture plate, and then incubated at 37° C., 5% CO2 for 2 hours.

[3] = Homo sapiens, ASPC1, read-out: 2 h p-ERK (AsPC-1 cells), IC50 (μM), 2 hours compound treatment

His-tagged KRAS G12D protein, sequence (P01116 1-188 isoform P01116-2 G12D): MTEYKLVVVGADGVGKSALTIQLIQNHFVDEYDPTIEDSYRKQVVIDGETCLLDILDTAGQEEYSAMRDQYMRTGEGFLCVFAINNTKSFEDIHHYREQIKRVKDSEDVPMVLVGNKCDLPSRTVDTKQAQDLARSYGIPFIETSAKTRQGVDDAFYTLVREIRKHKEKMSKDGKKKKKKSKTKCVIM

CCc1c(F)ccc2cc(O)cc(-c3ncc4c(N5C[C@@H]6CC[C@@H]5CO6)nc(OC[C@@]56CCCN5C[C@H](F)C6)nc4c3F)c12 [Example 28, 4-(4-((1S,4R)-2-Oxa-5-azabicyclo[2.2.2]octan-5-yl)-8-fluoro-2-(((2R,7aS)-2-fluorotetrahydro-1H-pyrrolizin-7a(5H)-yl)methoxy)pyrido [4,3-d]pyrimidin-7-yl)-5-ethyl-6-fluoronaphthalen-2-ol]
IC50 [1]: 0.079 µM | IC50 [2, 3]: 1.77 µM

CCc1cccc2cc(O)cc(-c3ncc4c(N5CCCOCC5)nc(OC[C@@H]5C[C@@H](F)CN5C)nc4c3F)c12 [Example 32, 5-Ethyl-4-(8-fluoro-2-(((2S,4R)-4-fluoro-1-methylpyrrolidin-2-yl)methoxy)-4-(1,4-oxazepan-4-yl)pyrido[4,3-d]pyrimidin-7-yl)naphthalen-2-ol]
IC50 [1]: 0.013 µM | IC50 [2, 3]: 0.966 µM

CCc1c(F)ccc2cc(O)cc(-c3ncc4c(N5CC[S+]([O-])CC5)nc(OC[C@@]56CCCN5C[C@H](F)C6)nc4c3F)c12 [Example 34, 4-(7-(8-Ethyl-7-fluoro-3-hydroxynaphthalen-1-yl)-8-fluoro-2-(((2R,7aS)-2-fluorotetrahydro-1H-pyrrolizin-7a(5H)-yl)methoxy)pyrido[4,3-d]pyrimidin-4-yl)thiomorpholine 1-oxide]
IC50 [1]: 0.001 µM | IC50 [2, 3]: 0.393 µM

CCc1c(F)ccc2cc(O)cc(-c3ncc4c(N5CCS(=N)(=O)CC5)nc(OC[C@@]56CCCN5C[C@H](F)C6)nc4c3F)c12 [Example 35, 4-(7-(8-Ethyl-7-fluoro-3-hydroxynaphthalen-1-yl)-8-fluoro-2-(((2R,7aS)-2-fluorotetrahydro-1H-pyrrolizin-7a(5H)-yl)methoxy)pyrido[4,3-d]pyrimidin-4-yl)-1-imino-1 λ^6-thiomorpholine 1-oxide]
IC50 [1]: 0.057 µM | IC50 [2, 3]: > 10 µM

CCc1c(F)ccc2cc(O)cc(-c3ncc4c(N5CCC[S+]([O-])CC5)nc(OC[C@@]56CCCN5C[C@H](F)C6)nc4c3F)c12 (stereo partly drawn) [Example 36, 4-(7-(8-Ethyl-7-fluoro-3-hydroxynaphthalen-1-yl)-8-fluoro-2-(((2R,7aS)-2-fluorotetrahydro-1H-pyrrolizin-7a(5H)-yl)methoxy)pyrido[4,3-d]pyrimidin-4-yl)-1,4-thiazepane 1-oxide]
IC50 [1]: 0.001 µM | IC50 [2, 3]: 0.651 µM

CCc1c(F)ccc2cc(O)cc(-c3ncc4c(N5CCCS(=O)(=O)CC5)nc(OC[C@@]56CCCN5C[C@H](F)C6)nc4c3F)c12 [Example 37, 4-(7-(8-Ethyl-7-fluoro-3-hydroxynaphthalen-1-yl)-8-fluoro-2-(((2R,7aS)-2-fluorotetrahydro-1H-pyrrolizin-7a(5H)-yl)methoxy)pyrido[4,3-d]pyrimidin-4-yl)-1,4-thiazepane 1,1-dioxide]
IC50 [1]: 0.011 µM | IC50 [2, 3]: 2.66 µM

CCc1c(F)ccc2cc(O)cc(-c3ncc4c(N5CCCS(=N)(=O)CC5)nc(OC[C@@]56CCCN5C[C@H](F)C6)nc4c3F)c12 (stereo partly drawn) [Example 38, 4-(7-(8-Ethyl-7-fluoro-3-hydroxynaphthalen-1-yl)-8-fluoro-2-(((2R,7aS)-2-fluorotetrahydro-1H-pyrrolizin-7a(5H)-yl)methoxy)pyrido[4,3-d]pyrimidin-4-yl)-1-imino-1 λ^6,4-thiazepane 1-oxide]
IC50 [1]: 0.021 µM | IC50 [2, 3]: > 10 µM

CCc1c(F)ccc2cc(O)cc(-c3ncc4c(N5CCOC[C@@H](OC)C5)nc(OC[C@@]56CCCN5C[C@H](F)C6)nc4c3F)c12 [Example 39, 5-Ethyl-6-fluoro-4-(8-fluoro-2-(((2R,7aS)-2-fluorotetrahydro-1H-pyrrolizin-7a(5H)-yl)methoxy)-4-((S)-6-methoxy-1,4-oxazepan-4-yl)pyrido[4,3-d]pyrimidin-7-yl)naphthalen-2-ol]
IC50 [1]: 0.005 µM | IC50 [2, 3]: 0.171 µM

CCc1c(F)ccc2cc(O)cc(-c3ncc4c(N5CCOC[C@H](CO)C5)nc(OC[C@@]56CCCN5C[C@H](F)C6)nc4c3F)c12 [Example 49, 5-Ethyl-6-fluoro-4-(8-fluoro-2-(((2R, 7aS)-2-fluorotetra-hydro-1H-pyrrol-izin-7a(5H)-yl)-methoxy)-4-((S)-6-(hydroxymethyl)-1,4-oxazepan-4-yl)-pyrido[4,3-d]pyr-imidin-7-yl)naph-thalen-2-ol]
IC50 [1]: 0.013 µM | IC50 ([2]; read-out: 2 h p-ERK (AsPC-1 cells), IC50, 2 hours compound treatment): 0.889 µM

CCc1c(F)ccc2cc(O)cc(-c3ncc4c(N5CCCOC(C(N)=O)C5)nc(OC[C@@]56CCCN5C[C@H](F)C6)nc4c3F)c12 (stereo partly drawn) [Example 51, 4-(7-(8-Ethyl-7-fluoro-3-hydroxy-naphthalen-1-yl)-8-fluoro-2-(((2R, 7aS)-2-fluorotetra-hydro-1H-pyrrol-zin-7a(5H)-yl)-methoxy)pyrido [4,3-d]pyrimidin-4-yl)-1,4-oxazepane-2-carboxamide]
IC50 [1]: 0.006 µM | IC50 [2, 3]: 6.23 µM

CCc1c(F)ccc2cc(O)cc(-c3ncc4c(N5CCO[C@H](C)C5)nc(OC[C@@]56CCCN5C[C@H](F)C6)nc4c3F)c12 [Example 52, 5-Ethyl-6-fluoro-4-(8-fluoro-2-(((2R,7aS)-2-fluorotetrahydro-1H-pyrrolizin-7a(5H)-yl)meth-oxy)-4-((R)-2-methylmorpho-lino)-pyrido[4,3-d]pyrimidin-7-yl)-naphthalen-2-ol]
IC50 [1]: 0.033 µM | IC50 [2, 3]: 1.28 µM

CCc1c(F)ccc2cc(O)cc(-c3ncc4c(N5CCO[C@@H](COC)C5)nc(OC[C@@]56CCCN5C[C@H](F)C6)nc4c3F)c12 [Example 53, 5-Ethyl-6-fluoro-4-(8-fluoro-2-(((2R, 7aS)-2-fluorotetra-hydro-1H-pyrrol-izin-7a(5H)-yl)-methoxy)-4-((R)-2-(methoxymeth-yl)morpholino)pyr-ido[4,3-d]pyrimi-din-7-yl)naph-thalen-2-ol]
IC50 [1]: 0.039 µM | IC50 [2, 3]: 1.24 µM

CCc1c(F)ccc2cc(O)cc(-c3ncc4c(N5CCCOC(CO)C5)nc(OC[C@@]56CCCN5C[C@H](F)C6)nc4c3F)c12 (stereo partly drawn) [Example 56, 5-Ethyl-6-fluoro-4-(8-fluoro-2-(((2R, 7aS)-2-fluorotetra-hydro-1H-pyrrol-izin-7a(5H)-yl)-methoxy)-4-(2-(hydroxymethyl)-1,4-oxazepan-4-yl)pyrido[4,3-d]pyrimidin-7-yl)-naphthalen-2-ol]
IC50 [1]: 0.003 µM | IC50 [2, 3]: 0.081 µM

CCc1c(F)ccc2cc(O)cc(-c3ncc4c(N5CCOC(CO)CC5)nc(OC[C@@]56CCCN5C[C@H](F)C6)nc4c3F)c12 (stereo partly drawn) [Example 57, 5-Ethyl-6-fluoro-4-(8-fluoro-2-(((2R, 7aS)-2-fluorotetra-hydro-1H-pyrrolizin-7a(5H)-yl)methoxy)-4-(7-(hydroxymeth-yl)-1,4-oxazepan-4-yl)pyrido[4,3-d]pyrimidin-7-yl)-naphthalen-2-ol]
IC50 [1]: 0.013 µM | IC50 [2, 3]: 5.95 µM

CCc1c(F)ccc2cc(O)cc(-c3ncc4c(N5CC6CC5CS6(=O)=O)nc(OC[C@@]56CCCN5C[C@H](F)C6)nc4c3F)c12 (stereo partly drawn) [Example 59, 5-(7-(8-Ethyl-7-fluoro-3-hydroxy-naphthalen-1-yl)-8-fluoro-2-(((2R,7aS)-2-fluorotetrahydro-1H-pyrrolizin-7a(5H)-yl)meth-oxy)pyrido[4,3-d]pyrimidin-4-yl)-2-thia-5-azabicyclo [2.2.1]heptane 2,2-dioxide]
IC50 [1]: 0.014 µM | IC50 [2, 3]: 3.63 µM

CCc1c(F)ccc2cc(O)cc(-c3ncc4c(N5CCOCC(C#N)C5)nc(OC[C@@]56CCCN5C[C@H](F)C6)nc4c3F)c12 (stereo partly drawn) [Example 61, 4-(7-(8-Ethyl-7-fluoro-3-hydroxy-naphthalen-1-yl)-8-fluoro-2-(((2R,7aS)-2-fluorotetrahydro-1H-pyrrolizin-7a(5H)-yl)meth-oxy)-pyrido[4,3-d]pyrimidin-4-yl)-1,4-oxazepane-6-carbonitrile]
IC50 [1]: 0.003 µM | IC50 [2, 3]: 0.193 µM

CCc1c(F)ccc2cc(O)cc(-c3ncc4c(N5CCCS(=O)(=O)C5)nc(OC[C@@]56CCCN5C[C@H](F)C6)nc4c3F)c12 [Example 62, 3-(7-(8-Ethyl-7-fluoro-3-hydroxy-naphthalen-1-yl)-8-fluoro-2-(((2R,7aS)-2-fluorotetrahydro-1H-pyrrolizin-7a(5H)-yl)meth-oxy)pyrido[4,3-d]pyrimidin-4-yl)-1,3-thiazinane 1,1-dioxide]
IC50 [1]: 0.001 µM | IC50 [2, 3]: 0.07 µM

CCc1c(F)ccc2cc(O)cc(-c3ncc4c(N5CCOCC(S(N)(=O)=O)C5)nc(OC[C@@]56CCCN5C[C@H](F)C6)nc4c3F)c12 (stereo partly drawn) [Example 63, 4-(7-(8-Ethyl-7-fluoro-3-hydroxy-naphthalen-1-yl)-8-fluoro-2-(((2R,7aS)-2-fluorotetrahydro-1H-pyrrolizin-7a(5H)-yl)meth-oxy)pyrido[4,3-d]pyrimidin-4-yl)-1,4-oxazepane-6-sulfonamide]
IC50 [1]: 0.005 µM | IC50 [2, 3]: 1.38 µM

CCc1c(F)ccc2cc(O)cc(-c3ncc4c(N5CCOC6CC65)nc(OC[C@@]56CCCN5C[C@H](F)C6)nc4c3F)c12 (stereo partly drawn) [Example 66, 4-(4-((1R,6S)-2-oxa-5-azabicyclo[4.1.0]heptan-5-yl)-8-fluoro-2-(((2R,7aS)-2-fluorotetrahydro-1H-pyrrolizin-7a(5H)-yl)methoxy)-pyrido[4,3-d]pyrim-idin-7-yl)-5-ethyl-6-fluoronaphthalen-2-ol]
IC50 [1]: 0.015 µM | IC50 [2, 3]: 0.592 µM

CCc1c(F)ccc2cc(O)cc(-c3ncc4c(N5CCOCC(=O)C5)nc(OCC56CCCN5CC(F)C6)nc4c3F)c12 [Example 67, 4-(7-(8-ethyl-7-fluoro-3-hydroxy-naphthalen-1-yl)-8-fluoro-2-(((2R,7aS)-2-fluorotetrahydro-1H-pyrrolizin-7a(5H)-yl)methoxy)-pyrido[4,3-d]pyrim-idin-4-yl)-1,4-oxazepan-6-one]
IC50 [1]: 0.002 µM | IC50 [2, 3]: 0.072 µM
